Measurements: patent publication US11660313B2, “Compositions and methods for application over skin” (Shiseido Company, Limited, priority 2015, dated 2023)
≈ marks a conversion by molar mass, not a printed value.

Assay: Solubility of triamcinolone acetonide in receptor fluid
Format: physicochemical
Settings: not told, aqueous with cosolvent or surfactant or cyclodextrin; PBS at pH 7.4 with 2 wt % hydroxypropyl-beta-cyclodextrin
Description: Receptor fluid preparation: Based on the results of solubility studies, a receptor fluid of phosphate buffered saline (PBS) at pH 7.4 with 2 wt % hydroxypropyl-beta-cyclodextrin (HPBCD) was chosen. […] The preparation and degassing of the receptor fluid was prepared at an appropriate pH and degassing was carried out by filtering the receptor fluid through a ZapCap CR 0.2 μm membrane while pulling vacuum.

- solubility: ~282 µg/mL (≈ 649 µM)
SMILES: CC1(C)O[C@@H]2C[C@H]3[C@@H]4CCC5=CC(=O)C=C[C@]5(C)[C@@]4(F)[C@@H](O)C[C@]3(C)[C@]2(C(=O)CO)O1 [triamcinolone acetonide]
